Results as given in US20220184000A1, “USE OF CANNABIDIOL IN THE TREATMENT OF DRAVET SYNDROME” (priority 2019, published 2022).

How the values were obtained:
Type in all cases: in vivo
Scn1a^−/− mice [1] = assay: Neonatal welfare scoring (TNW) in Scn1a^−/− mice, Study I
Protocol: (§1) 129S-Scn1a^tm1Keammjax heterozygote mice (Jackson Laboratory, USA) were maintained in and bred together to obtain Scn1a^−/− and wild type (WT) animals used for this Study (n=10 per group).
(§2) Following genotyping, animals were randomly divided into four groups WT vehicle-treated, WT CBD-treated, Scn1a^−/− vehicle-treated and Scn1a^−/− CBD-treated (n=10/group). They were injected subcutaneously twice daily with either CBD (100 mg/kg) or its vehicle (ethanol:Kolliphor®:0.9% saline=2:1:17) from P8 until P25 or death (whichever was earlier).
(§3) A twice daily welfare check was conducted throughout the entire duration of the study. Drug administration was conducted at 0800 h and followed by welfare checks. Conversely, afternoon welfare checks were conducted from 1600 h and followed by drug administration in order to provide the maximum possible time between doses. […]
(§4) The parameters used for the welfare assessment were: weight, natural activity (NA; 0-3), reflex/response to touch (RT; 0-3), orbital tightening (OT; 0-2), and body condition score (BC; 1-3). A total neonatal welfare score (TNW; range 0-8) was calculated by adding together scores from NA, RT, and […].
(§5) In Study I, the welfare parameters were analysed using SPSS 24 (IBM SPSS Statistics®, UK), whilst survival data were analysed using GraphPad Prism 6 software (GraphPad Software, Inc., USA). […] All the data are expressed as mean±SEM. […]

Scn1a^−/− mice [2] = assay: Survival in Scn1a^−/− mice, Study I (acute model of Dravet syndrome); details: CBD-treated Scn1a^−/− mice; 100 mg/kg s.c. twice daily from P8; n=10; vehicle 15.5 days; Mantel-Cox p=0.003; FIG. 1B
Protocol: as §2
Animal suffering was minimised by employing a validated, welfare scoring system alongside a mathematical model to predict death. In this way, any animal for which the model predicted death could be sacrificed 0.5 day before enduring the maximal severity of the disease.
Additionally, surface temperature (ST) threshold was employed such that if the sum of the ST scores over the last 1.5 days, was equal to or greater than 3, the animal would be killed by cervical dislocation within 0.5 day.
as §5, with “USA). Data obtained from welfare parameters were compared using a three-way ANOVA to observe the main effects of treatment, genotype and time, and their two-way and three-way interactions.” for “USA).”

Scn1a^+/− mice = assay: Eight-arm radial arm maze (RAM) test, cognition, Study II; details: CBD 100 mg/kg s.c. twice daily
Protocol: Here, Scn1a^+/− were randomly divided into two groups and subcutaneously injected with either CBD (100 mg/kg twice daily; n=12) or its vehicle (ethanol:Kolliphor®:0.9% saline=2:1:17; n=29) from P8 onwards until P52 or death (whichever was earlier).
A radial arm maze (RAM) consisting of eight arms (each arm 60×10 cm; raised at 50 cm above the floor) was used to assess the reference memory (RM) and working memory (WM) of the animals. On four consecutive days, animals were given two 10-minute sessions of habituation to the test apparatus and rules of the test, separated by a 90 min interval. During the first two days of habituation, food rewards (¼ Cheerios®, Nestle) were randomly scattered on the floor of the apparatus covering all arms and food-troughs at the end of each arm. On the 3rd and 4th habituation day, food rewards were placed only in food troughs of four randomly selected arms (fixed for each animal during the habituation and test day). Food was withdrawn 4-6 hours before the trial (both during habituation and test days) to motivate the animals to locate the rewards and thus perform the task. On the test day two trials of 10 min were conducted at 90 min interval and the activity of the animals were video recorded for offline blinded coding after the end of experiment. Entry to a non-baited arm was considered as a reference memory error (RME), whereas re-entry to a previously baited arm from which the food was already taken is considered as a working memory error (WME). The mean WME or RME were calculated from the two test trials.
In Study II, the data were analysed in GraphPad Prism 6 software. Survival curves of Scn1a^+/− vehicle-treated and Scn1a^+/− CBD-treated group were compared using a Mantel-Cox test. The percentage of animals from the Scn1a^+/− vehicle-treated and Scn1a^+/− CBD-treated groups that survived until the end of the study (P52) were compared by Fisher's exact test. Further, data obtained from the comorbidity assessment were checked for normality by D'Agostino & Pearson omnibus normality test. Data obtained from rotarod, gait, social interaction (active interaction), EPM, sucrose preference, RAM (RME) tests were normally distributed and the differences between the three groups were analysed by one-way ANOVA. If a significant difference was found then Holm-Sidak post-hoc test was conducted among the groups. […] Upon observing a significant difference, the Dunn's post-hoc test was employed to compare the groups. Multiple comparisons were corrected in all cases. Parametric data are presented in scattered dot plot in the figures and are expressed as mean±SEM. Non-parametric data are presented in box plot in the figures and are expressed as median, min to max, and interquartile range (IQR). […]

wild type (WT) mice = assay: Neonatal welfare scoring (TNW) in wild type mice, Study I
Protocol: as §1, §2, §3, §4, §5

Compound: C=C(C)[C@@H]1CCC(C)=C[C@H]1c1c(O)cc(CCCCC)cc1O [CBD, cannabidiol]
- mean total neonatal welfare (TNW) score (Scn1a^−/− mice [1]; Scn1a^−/− CBD-treated group, CBD 100 mg/kg s.c. twice daily from P8 until P25 or death, n=10, mean±SEM, score range 0-8, vehicle group 3.66±0.04): 2.85±0.04
- welfare scores versus vehicle-treated Scn1a^−/− mice (post hoc) (Scn1a^−/− mice [1]; from P12 to P16, CBD 100 mg/kg s.c. twice daily, p<0.01, FIG. 1A): delayed the worsening of welfare scores
- median survival (Scn1a^−/− mice [2]): 16.25 days
- reference memory errors (RME), Scn1a^+/− CBD-treated versus WT vehicle-treated (Scn1a^+/− mice; p=0.65): No difference
- working memory errors (WME), Scn1a^+/− CBD-treated versus WT vehicle-treated (Scn1a^+/− mice; p>0.9999): not differed
- reference memory errors (RME), Scn1a^+/− vehicle-treated compared to Scn1a^+/− CBD-treated (Scn1a^+/− mice; statement describes vehicle group relative to CBD group (n=10), p<0.0001, FIG. 4E): significantly more RME
- working memory errors (WME), Scn1a^+/− vehicle-treated compared to Scn1a^+/− CBD-treated (Scn1a^+/− mice; statement describes vehicle group relative to CBD group, p=0.001, FIG. 4F): significantly more WME
- TNW score versus WT vehicle-treated animals (post hoc) (wild type (WT) mice; P8-P8.5, first day of treatment, CBD 100 mg/kg s.c. twice daily, p<0.05, FIG. 1A): improved TNW score
- mean total neonatal welfare (TNW) score (wild type (WT) mice; WT CBD-treated group, CBD 100 mg/kg s.c. twice daily from P8 until P25, n=10, mean±SEM, score range 0-8, vehicle group 0.39±0.04): 0.24±0.04
